{"source": "patent US12466821B2", "about": "(Novartis AG, priority 2018, dated 2025)", "key": {"[1]": {"target": "human CMV DNA polymerase UL54 (Human cytomegalovirus (strain AD169) (HHV-5) (Human herpesvirus 5), UniProt P08546)", "test": "CMV polymerase biochemical assay (molecular beacon-based)", "summary_of_the_method": "(§1)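 Full-length wild-type N-terminal MBP-fusion polymerases from sf9 cells were used at 100 pM (CMV) or 625 pM (HSV) in Tris pH 7.5, 10 mM MgCl2, and preincubated with inhibitor for 30 min at RT. Reactions with 1.25 uM each dNTP, 200 nM primer and 100 nM molecular beacon ran 60 min (CMV) or 20 min (HSV) at RT. Fluorescence was read at 480/535 nm and IC50 derived.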"}, "[2]": {"target": "human HSV DNA polymerase UL30 (Human herpesvirus 1 (strain 17) (HHV-1) (Human herpes simplex virus 1), UniProt P04293)", "test": "HSV polymerase biochemical assay (molecular beacon-based)", "summary_of_the_method": "as §1"}, "[3]": {"test_system": "Luciferase-encoding HCMV, AD169 strain", "test": "CMV Luciferase assay (cellular herpesvirus replication)", "format": "cell-based", "summary_of_the_method": "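Reporter HCMV AD169 with luciferase driven by late pp28 promoter, so signal requires viral DNA replication; NN-NHDF fibroblasts in 2% FBS medium, compound (0.0159–50 or 0.00318–10 μM, 0.5% DMSO) added 1 h before infection at MOI 1. Luminescence read 72 hpi; EC50 from 4-parameter fit of control-normalized %.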"}, "[4]": {"details": "Human betaherpesvirus 5, AD169, read-out: CMV-Luc Cellular EC50"}}, "note": "Where two headings read alike, the source gives them in different places.", "data": [{"smiles": "O=C(NCc1ccc(Cl)cc1)c1cc(F)c2n(c1=O)CCN(CCN1CCCS1(=O)=O)C2=O", "note": "[Example 163]", "values": [{"measurement": "IC50", "setting": "[1]", "result": 23.2, "unit": "nM"}, {"measurement": "IC50", "setting": "[2]", "result": 141, "unit": "nM"}, {"measurement": "EC50", "setting": "[3]; [4]", "result": 370, "unit": "nM"}]}, {"smiles": "CC(C)(C(=O)NS(C)(=O)=O)S(=O)(=O)C1(CN2CCn3c(ccc(C(=O)NCc4ccc(Cl)cc4)c3=O)C2=O)CC1", "note": "[Example 176, N-(4-chlorobenzyl)-2-((1-((2-methyl-1-(methylsulfonamido)-1-oxopropan-2-yl)sulfonyl)cyclopropyl)methyl)-1,6-dioxo-1,3,4,6-tetrahydro-2H-pyrido[1,2-a]pyrazine-7-carboxamide]", "values": [{"measurement": "IC50", "setting": "[1]", "result": 4.6, "unit": "nM"}, {"measurement": "IC50", "setting": "[2]", "result": 61.9, "unit": "nM"}, {"measurement": "EC50", "setting": "[3]; [4]", "result": 7230, "unit": "nM"}]}, {"smiles": "O=C(NCc1ccc(Cl)cc1)c1ccc2n(c1=O)CCN(CC1(S(=O)(=O)C3(F)CC3)CC1)C2=O", "note": "[Example 76, N-(4-chlorobenzyl)-2-((1-((1-fluorocyclopropyl)sulfonyl)cyclopropyl)methyl)-1,6-dioxo-2,3,4,6-tetrahydro-1H-pyrido[1,2-a]pyrazine-7-carboxamide]", "values": [{"measurement": "IC50", "setting": "[1]", "result": 1.9, "unit": "nM"}, {"measurement": "IC50", "setting": "[2]", "result": 59.5, "unit": "nM"}, {"measurement": "EC50", "setting": "[3]; [4]", "result": 46.9, "unit": "nM"}]}, {"smiles": "CN(CCN1CCn2c(ccc(C(=O)NCc3ccc(Cl)cc3)c2=O)C1=O)C(=O)OC(C)(C)C", "note": "[Example 54, tert-butyl (2-(7-((4-chlorobenzyl)carbamoyl)-1,6-dioxo-3,4-dihydro-1H-pyrido[1,2-a]pyrazin-2(6H)-yl)ethyl)(methyl)carbamate]", "values": [{"measurement": "IC50", "setting": "[1]", "result": 292, "unit": "nM"}, {"measurement": "IC50", "setting": "[2]", "result": 1930, "unit": "nM"}, {"measurement": "EC50", "setting": "[3]; [4]", "result": 4340, "unit": "nM"}]}, {"smiles": "Cc1cc(C(=O)NCc2ccc(C#N)cc2)c(=O)n2c1C(=O)N(CC1(S(C)(=O)=O)CC1)CC2", "note": "[Example 85, N-(4-cyanobenzyl)-9-methyl-2-((1-(methylsulfonyl)cyclopropyl)methyl)-1,6-dioxo-2,3,4,6-tetrahydro-111-pyrido[1,2-a]pyrazine-7-carboxamide]", "values": [{"measurement": "IC50", "setting": "[1]", "result": 4.7, "unit": "nM"}, {"measurement": "IC50", "setting": "[2]", "result": 102, "unit": "nM"}, {"measurement": "EC50", "setting": "[3]; read-out: CMV-Luc Cellular EC50", "result": 177, "unit": "nM"}]}, {"smiles": "C[S+]([O-])C1(CN2CCn3c(ccc(C(=O)NCc4ccc(C#N)cc4)c3=O)C2=O)CC1", "note": "(stereo not drawn) [Example 68-1, N-(4-cyanobenzyl)-2-((1-(methylsulfinyl)cyclopropyl)methyl)-1,6-dioxo-2,3,4,6-tetrahydro-1H-pyrido[1,2-a]pyrazine-7-carboxamide]", "values": [{"measurement": "IC50", "setting": "[1]", "result": 146, "unit": "nM"}, {"measurement": "IC50", "setting": "[2]", "result": 3800, "unit": "nM"}, {"measurement": "EC50", "setting": "[3]; [4]", "result": 3170, "unit": "nM"}]}, {"smiles": "C[C@@H](CCO)S(=O)(=O)C1(CN2CCn3c(ccc(C(=O)NCc4ccc(C#N)cc4)c3=O)C2=O)CC1", "note": "(single isomer, unassigned) [Example 8, N-(4-cyanobenzyl)-2-((1-((4-hydroxybutan-2-yl)sulfonyl)cyclopropyl)methyl)-1,6-dioxo-2,3,4,6-tetrahydro-1H-pyrido[1,2-a]pyrazine-7-carboxamide]", "values": [{"measurement": "IC50", "setting": "[1]", "result": 4.6, "unit": "nM"}, {"measurement": "IC50", "setting": "[2]", "result": 111, "unit": "nM"}, {"measurement": "EC50", "setting": "[3]; [4]", "result": 784, "unit": "nM"}]}, {"smiles": "CN(C)S(=O)(=O)CCN1CCn2c(ccc(C(=O)NCc3ccc(Cl)cc3)c2=O)C1=O", "note": "[Example 71, N-(4-chlorobenzyl)-2-(2-(N,N-dimethylsulfamoyl)ethyl)-1,6-dioxo-2,3,4,6-tetrahydro-1H-pyrido[1,2-a]pyrazine-7-carboxamide]", "values": [{"measurement": "IC50", "setting": "[1]", "result": 347, "unit": "nM"}, {"measurement": "IC50", "setting": "[2]", "result": 2780, "unit": "nM"}, {"measurement": "EC50", "setting": "[3]; [4]", "result": 3050, "unit": "nM"}]}, {"smiles": "O=C(NCc1ccc(Cl)cc1)c1ccc2n(c1=O)CCN(CC1(S(=O)(=O)C3CCOCC3)CC1)C2=O", "note": "[Example 105-1, N-(4-chlorobenzyl)-1,6-dioxo-2-((1-((tetrahydro-2H-pyran-4-yl)sulfonyl)cyclopropyl)methyl)-2,3,4,6-tetrahydro-1H-pyrido[1,2-a]pyrazine-7-carboxamide]", "values": [{"measurement": "IC50", "setting": "[1]", "result": 1.5, "unit": "nM"}, {"measurement": "IC50", "setting": "[2]", "result": 39.7, "unit": "nM"}, {"measurement": "EC50", "setting": "[3]; [4]", "result": 50.1, "unit": "nM"}]}, {"smiles": "N#Cc1ccc(CNC(=O)c2ccc3n(c2=O)CCN(CC2(S(=O)(=O)[C@@H]4CC4(F)F)CC2)C3=O)cc1", "note": "(single isomer, unassigned) [Example 100-2]", "values": [{"measurement": "IC50", "setting": "[1]", "result": 1, "unit": "nM"}, {"measurement": "IC50", "setting": "[2]", "result": 39.5, "unit": "nM"}, {"measurement": "EC50", "setting": "[3]; [4]", "result": 43.1, "unit": "nM"}]}, {"smiles": "CC(C)(CO)S(=O)(=O)C1(CN2CCn3c(ccc(C(=O)NCc4ccc(Cl)nc4)c3=O)C2=O)CC1", "note": "[Example 182]", "values": [{"measurement": "IC50", "setting": "[1]", "result": 2.7, "unit": "nM"}, {"measurement": "IC50", "setting": "[2]", "result": 38.6, "unit": "nM"}, {"measurement": "EC50", "setting": "[3]; [4]", "result": 48.3, "unit": "nM"}]}]}
